Tested on: patients of the REDUCE-IT and earlier EPA placebo-controlled trials
Assay: Example 3: adverse events by risk ratio, icosapent ethyl vs placebo (candidate categories; infectious disease terms of interest)
Details: R-I

## CC/C=C\C/C=C\C/C=C\C/C=C\C/C=C\CCCC(=O)OCC [icosapent ethyl, eicosapentaenoic acid ethyl ester]
  AR: Bipolar Disease (AE table): 0.0%
  AR: Blood CPK increased (AE table): 1.6%
  AR: Blood glucose increased (AE table): 0.2%
  AR: Bone Fractures (AE table): 0.0%
  AR: Bronchiectasis (AE table): 0.1%
  AR: Bronchitis chronic (AE table): 0.2%
  AR: CKD (AE table): 1.3%
  AR: COPD (AE table): 2.7%
  AR: Carotid bruit (AE table): 0.4%
  AR: Cholestasis (AE table): 0.0%
  AR: Chrohn's Disease (AE table): 0.0%
  AR: Cognitive Decline: Attention disorders and disturbances (AE table): 0.0%
  AR: Cognitive Decline: Cognitive and attention disorders and disturbances (AE table): 0.0%
  AR: Cough (AE table): 5.9%
  AR: Decreased Appetite (AE table): 0.5%
  AR: Deep Venous Thromboembolism (AE table): 0.2%
  AR: Depression: Depressed mood disorders and disturbances (AE table): 2.9%
  AR: Depression: Depressive disorders (AE table): 2.8%
  AR: Depression: Depressive disorders - Agitated depression (AE table): 0.0%
  AR: Depression: Depressive disorders - Depression (AE table): 2.6%
  AR: Depression: Depressive disorders - Major depression (AE table): 0.0%
  AR: Depression: Depressive disorders - Persistent depressive disorder (AE table): 0.0%
  AR: Depression: Mood alterations - Depressed mood (AE table): 0.1%
  AR: Depression: Mood alterations - Depressive symptom (AE table): 0.0%
  AR: Depression: Mood alterations with depressive symptoms (AE table): 0.2%
  AR: Dermatitis psoriasiform (AE table): 0.0%
  AR: Dermatitis, allergic (AE table): 0.2%
  AR: Diabetic Nephropathy (AE table): 0.3%
  AR: ESRD (AE table): 0.1%
  AR: Ear infection (AE table): 0.9%
  AR: Embolism and Thrombosis (AE table): 1.2%
  AR: Emphysema (AE table): 0.4%
  AR: Epilepsy (AE table): 0.0%
  AR: Erectile dysfunction (AE table): 1.8%
  AR: Furuncle (AE table): 0.2%
  AR: Gastroenteritis, viral (AE table): 1.1%
  AR: Gastroesophageal reflux (AE table): 0.1%
  AR: Gingivitis (AE table): 0.2%
  AR: Glomerulonephritis and Nephrotic Syndrome (AE table): 0.0%
  AR: Guttate psoriasis (AE table): 0.0%
  AR: Helicobacter infection (AE table): 0.2%
  AR: Hepatitis C (AE table): 0.0%
  AR: Herpes Zoster (AE table): 1.8%
  AR: Herpes simplex (AE table): 0.2%
  AR: Hyperglycemia (AE table): 2.0%
  AR: Hyperkalemia (AE table): 1.1%
  AR: Hypertension (AE table): 8.1%
  AR: Hypertensive Crisis (AE Table): 0.9%
  AR: Hypokalemia (AE table): 2.0%
  AR: Hypomagnesemia (AE table): 0.9%
  AR: Infected bite (AE table): 0.1%
  AR: Influenza (AE table): 6.5%
  AR: Influenza like illness (AE table): 0.6%
  AR: Jaundice cholestatic (AE table): 0.0%
  AR: Large intestine polyps (AE table): 0.2%
  AR: Limb Fractures and Dislocations (AE table): 0.8%
  AR: Lupus (AE table): 0.0%
  AR: Microalbuminuria (AE table): 0.2%
  AR: Migraine (AE table): 0.2%
  AR: Mucosal inflammation (AE table): 0.1%
  AR: Multiple Sclerosis (AE table): 0.0%
  AR: Muscle spasms (AE table): 2.0%
  AR: NASH (AE table): 0.1%
  AR: NASH for b/l NFS >0.675 (AE table): 0.3%
  AR: NASH+Hepatic Steatosis for NFS >0.675 (AE table): 1,6%
  AR: Nasopharyngitis, Mild Severity (AE table): 7.7%
  AR: Nephrolithiasis (AE table): 2.0%
  AR: Nephropathies (AE table): 0.6%
  AR: Nephrotic Syndrome (AE table): 0.0%
  AR: Orthopnea (AE table): 0.1%
  AR: PTSD (AE table): 0.1%
  AR: Pancytopenia (AE table): 0.2%
  AR: Pneumonia (AE table): 6.6%
  AR: Proteinuria (AE table): 0.5%
  AR: Psoriasis (AE table): 0.5%
  AR: Psoriatic Conditions (AE table): 0.6%
  AR: Psychosis: Psychotic disorder NEC (AE table): 0.0%
  AR: Pulmonary Edema (AE table): 0.3%
  AR: Respiratory Failure (AE table): 0.5%
  AR: Respiratory tract infection (AE table): 1,2%
  AR: Rheumatoid Arthritis (AE table): 0.0%
  AR: Rhinitis (AE table): 0.5%
  AR: Schizophrenia NEC (AE table): 0.0%
  AR: Sepsis (AE table): 0.9%
  AR: Severe chronic obstructive pulmonary disease (AE table): 0.5%
  AR: Severe dermatitis, allergic (AE table): 0.1%
  AR: Severe gastroenteritis (AE table): 0.2%
  AR: Severe sepsis (AE table): 0.6%
  AR: Severe systemic inflammatory response syndrome (AE table): 0.1%
  AR: Severe urinary tract infection (AE table): 0.4%
  AR: Systemic inflammatory response syndrome (AE table): 0.1%
  AR: Tooth infection (AE table): 0.6%
  AR: Ulcerative Colitis (AE table): 0.0%
  AR: Upper respiratory tract infection (AE table): 7.7%
  AR: Vascular hypertensive disorder (AE table): 9.0%
  AR: Viral infection (AE table): 0.5%
  AR: Vulvovaginal mycotic infection (AE table): 0.2%
  AR: Wheezing (AE table): 0.7%
  ARR: ADHD (AE table): 0.0%
  ARR: Allergic sinusitis (AE table): −0.0%
  ARR: Alzheimer's Disease (AE table): 0.0%
  ARR: Asthma (AE table): 0.1%
  ARR: Atelectasis (AE table): −0.3%
  ARR: Bipolar Disease (AE table): −0.0%
  ARR: Blood CPK increased (AE table): −0.6%
  ARR: Blood glucose increased (AE table): −0.1%
  ARR: Bone Fractures (AE table): 0.0%
  ARR: Bronchiectasis (AE table): −0.1%
  ARR: Bronchitis chronic (AE table): −0.1%
  ARR: CKD (AE table): 0.1%
  ARR: COPD (AE table): 0.2%
  ARR: Carotid bruit (AE table): −0.3%
  ARR: Cholestasis (AE table): 0.0%
  ARR: Chrohn's Disease (AE table): −0.0%
  ARR: Cognitive Decline: Attention disorders and disturbances (AE table): 0.0%
  ARR: Cognitive Decline: Cognitive and attention disorders and disturbances (AE table): 0.0%
  ARR: Cough (AE table): 0.0%
  ARR: Decreased Appetite (AE table): 0.5%
  ARR: Deep Venous Thromboembolism (AE table): −0.1%
  ARR: Depression: Depressed mood disorders and disturbances (AE table): 0.3%
  ARR: Depression: Depressive disorders (AE table): 0.3%
  ARR: Depression: Depressive disorders - Agitated depression (AE table): 0.0%
  ARR: Depression: Depressive disorders - Depression (AE table): 0.2%
  ARR: Depression: Depressive disorders - Major depression (AE table): 0.0%
  ARR: Depression: Depressive disorders - Persistent depressive disorder (AE table): 0.0%
  ARR: Depression: Mood alterations - Depressed mood (AE table): 0.0%
  ARR: Depression: Mood alterations - Depressive symptom (AE table): −0.0%
  ARR: Depression: Mood alterations with depressive symptoms (AE table): −0.0%
  ARR: Dermatitis psoriasiform (AE table): 0.0%
  ARR: Dermatitis, allergic (AE table): −0.2%
  ARR: Diabetic Nephropathy (AE table): −0.0%
  ARR: ESRD (AE table): −0.0%
  ARR: Ear infection (AE table): −0.2%
  ARR: Embolism and Thrombosis (AE table): 0.1%
  ARR: Emphysema (AE table): −0.2%
  ARR: Epilepsy (AE table): 0.0%
  ARR: Erectile dysfunction (AE table): −0.4%
  ARR: Furuncle (AE table): −0.1%
  ARR: Gastroenteritis, viral (AE table): −0.3%
  ARR: Gastroesophageal reflux (AE table): −0.1%
  ARR: Gingivitis (AE table): −0.1%
  ARR: Glomerulonephritis and Nephrotic Syndrome (AE table): −0.1%
  ARR: Guttate psoriasis (AE table): 0.0%
  ARR: Helicobacter infection (AE table): −0.1%
  ARR: Hepatitis C (AE table): 0.0%
  ARR: Herpes Zoster (AE table): −0.1%
  ARR: Herpes simplex (AE table): −0.1%
  ARR: Hyperglycemia (AE table): −0.5%
  ARR: Hyperkalemia (AE table): −0.6%
  ARR: Hypertension (AE table): −0.6%
  ARR: Hypertensive Crisis (AE Table): −0.3%
  ARR: Hypokalemia (AE table): 0.1%
  ARR: Hypomagnesemia (AE table): −0.3%
  ARR: Infected bite (AE table): −0.0%
  ARR: Influenza (AE table): −0.2%
  ARR: Influenza like illness (AE table): −0.1%
  ARR: Jaundice cholestatic (AE table): 0.1%
  ARR: Large intestine polyps (AE table): −0.2%
  ARR: Limb Fractures and Dislocations (AE table): −0.1%
  ARR: Lupus (AE table): −0.0%
  ARR: Microalbuminuria (AE table): −0.3%
  ARR: Migraine (AE table): 0.2%
  ARR: Mucosal inflammation (AE table): −0.0%
  ARR: Multiple Sclerosis (AE table): −0.0%
  ARR: Muscle spasms (AE table): −1.1%
  ARR: NASH (AE table): −0.1%
  ARR: NASH for b/l NFS >0.675 (AE table): −0.4%
  ARR: NASH+Hepatic Steatosis for NFS >0.675 (AE table): −0.5%
  ARR: Nasopharyngitis, Mild Severity (AE table): −0.2%
  ARR: Nephrolithiasis (AE table): 0.1%
  ARR: Nephropathies (AE table): −0.2%
  ARR: Nephrotic Syndrome (AE table): −0.0%
  ARR: Orthopnea (AE table): −0.1%
  ARR: PTSD (AE table): −0.0%
  ARR: Pancytopenia (AE table): −0.1%
  ARR: Pneumonia (AE table): −0.3%
  ARR: Proteinuria (AE table): −0.2%
  ARR: Psoriasis (AE table): 0.3%
  ARR: Psoriatic Conditions (AE table): 0.3%
  ARR: Psychosis: Psychotic disorder NEC (AE table): −0.0%
  ARR: Pulmonary Edema (AE table): −0.2%
  ARR: Respiratory Failure (AE table): −0.0%
  ARR: Respiratory tract infection (AE table): −0.1%
  ARR: Rheumatoid Arthritis (AE table): −0.1%
  ARR: Rhinitis (AE table): −0.1%
  ARR: Schizophrenia NEC (AE table): −0.0%
  ARR: Sepsis (AE table): −0.2%
  ARR: Severe chronic obstructive pulmonary disease (AE table): −0.1%
  ARR: Severe dermatitis, allergic (AE table): −0.1%
  ARR: Severe gastroenteritis (AE table): −0.1%
  ARR: Severe sepsis (AE table): −0.2%
  ARR: Severe systemic inflammatory response syndrome (AE table): −0.1%
  ARR: Severe urinary tract infection (AE table): −0.2%
  ARR: Systemic inflammatory response syndrome (AE table): −0.1%
  ARR: Tooth infection (AE table): −0.2%
  ARR: Ulcerative Colitis (AE table): −0.0%
  ARR: Upper respiratory tract infection (AE table): −0.2%
  ARR: Vascular hypertensive disorder (AE table): −0.8%
  ARR: Vulvovaginal mycotic infection (AE table): −0.1%
  ARR: Wheezing (AE table): −0.3%
  NNT: ADHD (AE table): −8362005
  NNT: Allergic sinusitis (AE table): 2046
  NNT: Alzheimer's Disease (AE table): −3344802
  NNT: Asthma (AE table): −1019
  NNT: Atelectasis (AE table): 372
  NNT: Bipolar Disease (AE table): 2045
  NNT: Blood CPK increased (AE table): 164
  NNT: Blood glucose increased (AE table): 682
  NNT: Bone Fractures (AE table): −4088
  NNT: Bronchiectasis (AE table): 1364
  NNT: Bronchitis chronic (AE table): 1023
  NNT: CKD (AE table): −680
  NNT: COPD (AE table): −453

Reference: patent US20210308089A1, “METHODS OF TREATING AND/OR PREVENTING VIRAL INFECTIONS AND/OR DISEASES CAUSED BY VIRUSES IN A SUBJECT IN NEED THEREOF” (priority 2020, published 2021)
